Measurements reported in patent publication US9539256B2 (THE BOARD OF REGENTS OF THE UNIVERSITY OF TEXAS SYSTEM, priority 2012, dated 2017).
“Also recorded” adds a separate entry of the source.

Experiments:
[1] = system: AsPC-1 and PANC-1 cells; assay: Pancreatic cancer cell viability, alamar blue assay; format: cell-based; design: dose or concentration left out as unconfirmed; conditions: ESI-09 for 24 hours and 48 hours
Method: FIG. 11. Effects of ESI-09 treatment on pancreatic cancer cell viability. AsPC-1 and PANC-1 cells were treated with vehicle control (open bars) or with […] ESI-09 (filled bars) for 24 hours and 48 hours. Cell viability was measured by a fluorometric alamar blue assay. Bars represent mean±s.d. (n=3).

[2] = system: AsPC-1, BxPC-3, and PANC-1; assay: Wound healing assay; format: cell-based; conditions: 10.0 μM; AsPC-1, BxPC-3, PANC-1
Method: Cells were grown to 95-100% confluency before a scratch wound was made. The medium was changed to RPMI 10% FBS containing 10.0 μM ESI-09. The cells were then incubated at 37° C. in 5% CO2. The wound was imaged at 0 hours and 22 hours after changing the medium. Healing rate was determined by calculating the percentage of wound closure normalized to a 1.0 mm wound according to the following equation: % wound closure=(distance between the edges of the wound before treatment with ES-09−distance between the edges of the wound 22 hours post treatment with ES-09)/1.0×100.

[3] = molecular target: T1, EPAC2 (Homo sapiens, UniProt Q8WZA2); assay: Phosphorylation of Akt in HEK293/EPAC2 cells; format: cell-based; conditions: 10 μM for 5 min before 007-AM
T1 construct: HEK293 cells that ectopically express full-length EPAC2 proteins; expressed in transfected cells; host or cells: HEK293
T1 sequence (Q8WZA2 whole entry, species assumed): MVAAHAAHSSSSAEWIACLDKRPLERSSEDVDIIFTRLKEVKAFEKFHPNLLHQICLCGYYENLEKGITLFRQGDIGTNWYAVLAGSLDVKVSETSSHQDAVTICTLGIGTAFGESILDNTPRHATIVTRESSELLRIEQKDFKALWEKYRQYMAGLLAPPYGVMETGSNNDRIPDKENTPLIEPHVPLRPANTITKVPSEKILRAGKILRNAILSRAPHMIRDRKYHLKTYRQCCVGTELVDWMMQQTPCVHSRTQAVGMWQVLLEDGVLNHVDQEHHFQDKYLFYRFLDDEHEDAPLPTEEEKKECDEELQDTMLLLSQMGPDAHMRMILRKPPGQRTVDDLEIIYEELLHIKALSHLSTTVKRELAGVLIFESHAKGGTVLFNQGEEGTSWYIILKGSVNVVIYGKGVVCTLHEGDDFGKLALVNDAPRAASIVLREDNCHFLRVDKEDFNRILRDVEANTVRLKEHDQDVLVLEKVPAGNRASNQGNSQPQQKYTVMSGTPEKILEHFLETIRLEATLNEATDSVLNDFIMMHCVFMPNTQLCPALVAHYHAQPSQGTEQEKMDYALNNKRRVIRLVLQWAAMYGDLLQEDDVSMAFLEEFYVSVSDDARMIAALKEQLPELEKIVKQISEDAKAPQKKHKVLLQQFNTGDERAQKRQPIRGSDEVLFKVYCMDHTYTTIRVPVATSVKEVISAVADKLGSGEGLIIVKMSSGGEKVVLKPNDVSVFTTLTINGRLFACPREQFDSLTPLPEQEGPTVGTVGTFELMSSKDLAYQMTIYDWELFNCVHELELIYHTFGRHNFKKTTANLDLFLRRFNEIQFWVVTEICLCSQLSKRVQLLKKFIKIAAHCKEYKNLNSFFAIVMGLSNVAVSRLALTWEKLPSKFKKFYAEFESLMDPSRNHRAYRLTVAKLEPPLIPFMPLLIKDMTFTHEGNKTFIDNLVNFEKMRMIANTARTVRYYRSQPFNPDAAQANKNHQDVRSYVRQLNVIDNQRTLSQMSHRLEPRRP
Method: FIG. 10. Effect of ESI-09 on EPAC-mediated PKB phosphorylation in HEK293/EPAC1, HEK293/EPAC2, and human vascular smooth muscle (hVSMC) cells. Serum-starved HEK293/EPAC1, HEK293/EPAC2, and hVSMC cells with or without pretreatment of […] ESI-09 were stimulated with 10 μM 007-AM. Cell lysates were subjected to Western blot analysis as described under “Experimental Procedures” using anti-phospho-Ser473-specific (PKB-P473) and anti-phospho-Thr308-specific (PKB-P308) PKB antibodies.
Cellular proteins from cell lysates treated with various reagents were separated by SDS-PAGE and transferred to polyvinylidene difluoride membrane. The levels of Akt activation were probed by immuno-blotting analyses using anti-phosphate T308 PKB antibodies (1:1000) and anti-phosphate S473 PKB antibodies (1:1000). At least three independent experiments were performed for each Western blot.

[4] = system: type II PKA holoenzyme; assay: PKA counter screening, type II holoenzyme; format: biochemical; conditions: 25 μM compound
Method: Kinase activity of the type I and II PKA holoenzyme are measured spectrophotometrically in a 96-well plate with a coupled enzyme assay as described previously (Cook et al. (1982) Biochemistry 21: 5794-5799). In this assay, the formation of ADP is coupled to the oxidation of NADH by the pyruvate kinase/lactate dehydrogenase reactions so the reaction rate can be determined by following the oxidation of NADH, reflected by a decrease in absorbance at 340 nm. […] Reactions are pre-equilibrated at room temperature and initiated by adding the Kemptide substrate (final concentration 0.26 mM).

[5] = system: Plasma leptin; assay: Plasma leptin of wild-type mice after 3 weeks treatment; format: in vivo; conditions: 50 mg/kg oral gavage for 3 weeks; relative to vehicle
Method: FIGS. 17A-17B. Pharmacological inhibition of EPAC reduces plasma leptin and enhances leptin signaling in hypothalamus (A) Western blotting of pSTAT3 Y705, total STAT3, SOCS3, SHP2 and α-tubulin in organotypic brain slices at hypothalamus level treated with leptin with or without EPAC specific inhibitor. (B) Plasma leptin levels of 8-week-old wild-type mice treated 3 weeks with vehicle or ESI-09 (50 mg/kg).
To explore the feasibility of increasing leptin sensitivity by targeting Epac1 using small molecules, organotypic brain slice cultures were prepared from 11-day old wild-type C57BL/6 mice. After 7 days ex vivo culture, treatment of the brain tissue with the Epac specific antagonist ESI-09 led to an enhanced pSTAT3 Y705 level both at the basal state and in response to leptin stimulation. […] These pharmacological data are in agreement with results obtained using Epac1 KO mice and further confirm that inhibition of Epac1 enhances leptin signaling in the hypothalamus. To further investigate the therapeutic potential of this small molecule, wild-type mice were with ESI-09 (50 mg/kg) or vehicle (corn oil) by oral gavage for 3 weeks.

[6] = system: OVA-specific IgG1 antibodies; assay: Oral ovalbumin immunization, serum OVA-IgG1; format: in vivo; conditions: WT mice, oral gavage 50 mg/kg, versus vehicle
[7] = molecular target: T1, EPAC2; assay: Rap1 activation assay in HEK293/EPAC2 cells; format: cell-based; conditions: HEK293/EPAC2 cells; pre-treatment with 10 μM compound
Method: FIGS. 9A-9B. Effects of EPAC2-specific antagonists on 007-AM-mediated cellular activation of Rap1. […] GTP-bound Rap1 (Rap1GTP) obtained by a Ral-GDSRBD-GST pull-down assay and total cellular Rap1 were detected by immunoblotting with Rap1-specific antibody. […] At test was used to determine statistical significance (*P<0.05).
Cellular activation of Rap1 was determined by pull-down of lysates derived from human vascular smooth muscle cell and HEK293 cells stably expressing EPAC1 or EPAC2 employing Ral-GDS-RBD-GST affinity beads as described earlier (Mei and Cheng (2005) Molecular Biosystems 1: 325-331).

[8] = system: AsPC-1, BxPC-3, and PANC-1; assay: Transwell migration/invasion assay; format: cell-based; conditions: pretreated with 10.0 μM for 24 hours; AsPC-1, BxPC-3, PANC-1
Method: The top chamber of 8 micron inserts (Costar Inc) were coated with BD Matrigel™ Basement Membrane Matrix ([…]). Cells (2×10^5) pretreated with 10.0 μM of ESI-09 for 24 hours were added to the top chamber of the inserts in serum free RPMI medium containing 0.25% BSA. The bottom chamber was filled with 600.0 μL of RPMI containing 10% FBS and 10.0 μM ESI-09. The cells were then incubated at 37° C. in 5% CO2 for 20 hours. Cells were removed from the top chamber and migrated cells were fixed in methanol and stained with crystal violet. The number of migrated cells were counted from four different fields.

## CC(C)(C)c1cc(C(=O)C(C#N)=NNc2cccc(Cl)c2)no1 [ESI-09, 3-(5-Tert-Butyl-Isoxazol-3-Yl)-2-[(3-Chlorophenyl)-Hydrazono]-3-Oxo-Propionitrile]
[1]
  cell proliferation and viability: did not significantly affect
[2]
  cell migration, wound healing: significant decrease; also recorded: significantly (P<0.05) decreased
[3]
  EPAC2-mediated Akt phosphorylation (T308 and S473): completely blocked
[4]
  cAMP-induced type II PKA holoenzyme activation: did not significantly alter
[5]
  Plasma leptin: significantly reduced
[6]
  serum OVA-specific IgG1 antibodies: significantly higher; also recorded: increases
[7]
  007-AM induced Rap1 activation: significant reduction
[8]
  cell migration, trans-well migration/invasion: significant decrease; also recorded: significantly (P<0.05) decreased
